Common to all, as to type: in vivo
In assay [1] the test system is Spodoptera littoralis (Cotton Leafworm). The assay can be described thus: Systemic insecticide test for Spodoptera littoralis, maize seedlings, 12.5 ppm (Example B9). To be noted: 96 h, 12.5 ppm in water, systemic via maize seedlings, larvae incubated four days. Here is the method: (§1) Four day old maize seedlings (Zea mais, variety Stoneville) are placed individual in vials containing 24 ml water into which the chemical is diluted at 12.5 ppm. Seedlings are allowed to grow for six days. Subsequently leaves are cut and placed in a Petri dish (5 cm diameter), inoculated with twelve to fifteen 1st instar S. littoralis larvae and incubated for four days in a growth chamber (25° C., 50% r.h., 18:6 L:D photo period). Number of alive insects are counted and percentage of dead calculated. Tests were conducted with one replicate.

Assay [2] concerns Spodoptera littoralis (Egyptian Cotton Leafworm). The assay can be described thus: Activity against Spodoptera littoralis, cotton leaf discs sprayed (Example B1). To be noted: foliar, 72 h, L1 larvae, checked 3 days after treatment. The source says:
Cotton leaf discs are placed on agar in a 24-well microtiter plate and sprayed with test solutions. After drying, the leaf discs are infested with 5 L1 larvae. The samples are checked for mortality, repellent effect, feeding behaviour, and growth regulation 3 days after treatment (DAT).

Assay [3] concerns Plutella xylostella (Diamond Back Moth). The assay can be described thus: Activity against Plutella xylostella, artificial diet MTP (Example B3). To be noted: 120 h, L2 larvae, incubation 5 days. Here is the method: (§2) 24-well microtiter plate (MTP) with artificial diet is treated with test solutions by pipetting. After drying, the MTP's are infested with larvae (L2) (10-15 per well). After an incubation period of 5 days, samples are checked for larval mortality, antifeedant and growth regulation. In this test, compounds listed in the Tables above show good activity. In particular compounds T13.1.2, T15.1.1, T15.1.91, T13.1.1, T9.1.2 (diastereomer A), T9.1.2 (diastereomer B), T16.1.1, T17.1.2 (diastereomer A), T17.1.2 (diastereomer B), T16.1.91, T13.1.92, T13.1.361, T13.1.391, T13.1.91, T13.1.6, T13.1.96, T44.1.2, T13.1.8, T13.1.23, T13.1.93, T13.1.113, T13.1.21, T13.1.111 have an activity of over 80% at 400 ppm.

The test system of assay [4] is Thrips tabaci (Onion Thrips). The assay can be described thus: Activity against Thrips tabaci, sunflower leaf discs (Example B7). To be noted: foliar, 144 h, incubation 6 days. The procedure:
Sunflower leaf discs are placed on agar in a 24-well microtiter plate and sprayed with test solutions. After drying, the leaf discs are infested with a thrips population of mixed ages. After an incubation period of 6 days, samples are checked for mortality and special effects (e.g. phytotoxicity).

Assay [5] deals with Myzus persicae (Green Peach Aphid). The assay can be described thus: Activity against Myzus persicae, systemic, pea seedlings (Example B6). To be noted: 144 h, 6 days after introduction. An excerpt: Roots of pea seedlings, infested with an aphid population of mixed ages, are placed directly in the test solutions. 6 days after introduction, samples are checked for mortality and special effects on the plant.

For assay [6], the system named is Diabrotica balteata (Corn Root Worm). The assay can be described thus: Activity against Diabrotica balteata, artificial diet MTP (Example B4). To be noted: 120 h, L2 larvae, incubation 5 days. The procedure: as §2, with “(6-10” for “(10-15”, “B),” for “B), T16.1.1,”, “T13.1.92,” for “T13.1.92, T13.1.361, T13.1.391,”, “T13.1.23,” for “T13.1.23, T13.1.93,”
Assay [7] relates to Heliothis virescens (Tobacco Budworm). The assay can be described thus: Activity against Heliothis virescens, eggs on artificial diet (Example B2). To be noted: 96 h, eggs 0-24 h old, incubation 4 days. The procedure:
Eggs (0-24 h old) are placed in 24-well microtiter plate on artificial diet and treated with test solutions by pipetting. After an incubation period of 4 days, samples are checked for egg mortality, larval mortality, and growth regulation.

In assay [8] the test system is Myzus persicae (Green Peach Aphid). The assay can be described thus: Activity against Myzus persicae, contact, sunflower leaf discs (Example B5). To be noted: foliar, 144 h, 6 DAT. Here is the method:
Sunflower leaf discs are placed on agar in a 24-well microtiter plate and sprayed with test solutions. After drying, the leaf discs are infested with an aphid population of mixed ages. After an incubation period of 6 DAT, samples are checked for mortality and special effects (e.g. phytotoxicity).

Assay [9] deals with Spodoptera littoralis (Lepidoptera:Noctuidae). Briefly: Systemic insecticide test for Spodoptera littoralis, comparison with state of the art (Example B11). Here is the method: as §1, with “the prescribed concentrations (3 and 0.8 ppm).” for “12.5 ppm.”, “(3.5” for “(5”, “calculated. Effects on larvae growth were compared to the control and percentage of larvae growth reduction calculated.” for “calculated.”

Each structure is given as a SMILES string.

Here are results for 10 compounds from patent publication US8278464B2, “Insecticides” (Syngenta Crop Protection LLC, priority 2006, dated 2012).

On to `Cc1cc(Cl)cc(C(=O)NC2(C)C[S+]([O-])C2)c1NC(=O)c1cc(C(F)(F)F)nn1-c1ncccc1Cl` (single isomer, unassigned) [T9.1.2 (diastereomer A)], for which the pest or weed control at 12.5 ppm in assay [1] is over 80%. In addition, the pest or weed control at 400 ppm in [2], in assay [3], in [4], in assay [5], in assay [6] and in assay [7] was over 80% each time. This compound also came in with a pest or weed control at 400 ppm in assay [8] of over 80%.
Turning to `Cc1cc(Cl)cc(C(=O)NC2(C)CS(=N)(=O)C2)c1NC(=O)c1cc(C(F)(F)F)nn1-c1ncccc1Cl` (single isomer, unassigned) [T17.1.2 (diastereomer A)], the pest or weed control at 12.5 ppm in assay [1] was over 80%. For the same compound, the pest or weed control at 400 ppm in [2], in assay [3], in [4], in assay [5], in [6] and in assay [7] was over 80% throughout. In addition, in [8], the pest or weed control at 400 ppm is over 80%.
With `O=C(NC1CCC1)c1cccc(Cl)c1NC(=O)c1cc(C(F)(F)F)nn1-c1ncccc1Cl` [Comp. 296, reference compound], in [9] (concentration 0.8 ppm), the “Death rate (%) after 4 days” value stood at 0% and the “Larvae growth reduction (% compared to control)” value was 0%. For the same compound, in assay [9] (concentration 3 ppm), the “Death rate (%) after 4 days” value was determined as 0% and the “Larvae growth reduction (% compared to control)” value was found to be 0%.
In assay [1], `Cc1cc(Cl)cc(C(=O)NC2(C)CS(=O)(=O)C2)c1NC(=O)c1cc(C(F)(F)F)nn1-c1ncccc1Cl` [T13.1.2, 2-(3-Chloro-pyridin-2-yl)-5-trifluoromethyl-2H-pyrazole-3-carboxylic acid [4-chloro-2-methyl-6-(3-methyl-1,1-dioxo-1λ^6-thietan-3-ylcarbamoyl)-phenyl]-amide] displayed a pest or weed control at 12.5 ppm of over 80%. For the same compound, the pest or weed control at 400 ppm in [2], in assay [3], in assay [4], in [5], in assay [6] and in assay [7] was over 80% in each case. This compound gave a pest or weed control at 400 ppm in assay [8] of over 80%.
As for `Cc1cc(Cl)cc(C(=O)NC2CS(=O)(=O)C2)c1NC(=O)c1cc(OCC(F)(F)F)nn1-c1ncccc1Cl` [T13.1.21], the pest or weed control at 400 ppm in [2], in assay [3], in [4], in [5], in assay [6] and in assay [7] was over 80% each time. This compound also came in with a pest or weed control at 400 ppm in assay [8] of over 80%.
`Cc1cc(C#N)cc(C(=O)NC2CS(=O)(=O)C2)c1NC(=O)c1cc(C(F)(F)F)nn1-c1ncccc1Cl` [T13.1.91] returned a pest or weed control at 12.5 ppm in assay [1] of over 80%. For the same compound, the pest or weed control at 400 ppm in assay [2], in assay [3], in assay [4], in assay [6], in [7] and in assay [8] was over 80% each time.
As to `Cc1cc(C#N)cc(C(=O)NC2(C)CS(=O)(=O)C2)c1NC(=O)c1cc(C(F)(F)F)nn1-c1ncccc1Cl` [T13.1.92], the pest or weed control at 12.5 ppm in [1] is over 80%. The pest or weed control at 400 ppm in assay [2], in [3], in assay [4], in assay [5], in [6] and in [7] was over 80% in each case. Also, the pest or weed control at 400 ppm in assay [8] is over 80%.
In assay [1], `Cc1cc(C#N)cc(C(=O)NC2CS(=O)(=O)C2)c1NC(=O)c1cc(Br)nn1-c1ncccc1Cl` [T13.1.96] came in with a pest or weed control at 12.5 ppm of over 80%. The pest or weed control at 400 ppm in assay [2], in assay [3], in assay [4], in assay [5], in assay [6] and in [7] was over 80% throughout. For the same compound, in assay [8], the pest or weed control at 400 ppm is over 80%.
For the compound `O=C(NC1CS(=O)(=O)C1)c1cccc(Cl)c1NC(=O)c1cc(C(F)(F)F)nn1-c1ncccc1Cl` [T13.1.391], the pest or weed control at 12.5 ppm in assay [1] was over 80%. In addition, the pest or weed control at 400 ppm in assay [2], in assay [3] and in [7] was over 80% throughout. Moreover, the “Death rate (%) after 4 days” value in assay [9] (concentration 0.8 ppm) was found to be 10%; in assay [9] (concentration 3 ppm), 55%. The results for the “Larvae growth reduction (% compared to control)” value in assay [9] (concentration 0.8 ppm) and in assay [9] (concentration 3 ppm) were 0% and 100%, respectively.
Regarding `Cc1cc(C#N)cc(C(=O)NC2CS(=O)(=O)C2(C)C)c1NC(=O)c1cc(C(F)(F)F)nn1-c1ncccc1Cl` (stereo not drawn) [T15.1.91], the pest or weed control at 400 ppm in assay [2], in [3], in [4], in [6], in assay [7] and in assay [8] was over 80% each time.

As a reminder, the pest or weed control is how far the test organism was held down. Low readings indicate a weak effect, high ones a strong effect.
